From PubChem BioAssay AID1918953 (Molecular Pharmacology Branch, DTP, NCI, 2023)
Several values for one entry are separate records, joined by “and”; a condition that tells them apart may be missing. Identical values can stand only once.

Tested on: MDA-MB-231 complex spheroid viability
Assay: Anticancer human tumor MDA-MB-231/ATCC cell line growth inhibition;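 further: drug exposure lasted 7 days starting on day 3 of spheroid growth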
Settings: for IC50: curve of first compound; for viability, T/C: stronger effect = lower value
Text: Multicellular complex tumor spheroid response to LSD1 Inhibitor Iadademstat in combination with a variety of drugs and investigational agents in selected tumor cell lines
The current study was undertaken to assess response to LSD1 inhibitors in combination with standard-of-care drugs and investigational agents in solid tumor complex spheroid models as well as in the K-562 leukemia. Complex spheroids include a stromal component modeled by human endothelial cells (HUVEC) and fibroblasts modeled by human mesenchymal stem cells (MSCs). The concentration ranges selected for each drug and investigational agent were based upon clinically achievable concentrations if the clinical Cmax of the agent was known.
Compounds. The drugs and investigational agents used in this study are listed on Table 1. All of the agents used, including staurosporine (NSC755774) and gemcitabine (NSC613327), were obtained from the Developmental Therapeutics Program, NCI. FDA-approved anticancer drugs are available from the NCI at http://dtp.nci.nih.gov/branches/dscb/oncology_drugset_explanation.html. Drugs and investigational agents were >95% pure by proton nuclear magnetic resonance (NMR) and liquid chromatography/mass spectrometry (LC/MS). Stock solutions were prepared at 400x in DMSO, stored at -70 degrees C, and diluted in fresh medium prior to their use. The final concentration of DMSO in cell culture wells never exceeded 0.25% (v/v). The FDA-approved anticancer drug set is available from the Developmental Therapeutics Program at https://dtp.cancer.gov/organization/dscb/obtaining/available_plates.htm. All drugs and investigational agents were tested over a range starting from a high concentration at or near the clinical Cmax and decreasing in half-log increments. If the clinical Cmax for an agent had not been determined, the highest concentration tested was 10 microM.
Cell Lines. The patient-derived cancer cell (PDC) lines: 292921-168-R-J2-PDC, K24384-001-R-PDC, and 521955-158-R2-J5-PDC pancreatic carcinomas, 556581-035-R-J1 ovarian carcinoma, 324938-238-R-J1-PDC, 855422-203-R-J1-PDC and 883617-216-R-J1-PDC urothelial bladder carcinomas, 743489-274-T-PDC renal cell carcinoma, 138582-R-J1 Merkel cell tumor, K60290-347-R-J1 and K57222-313-R-J1-PDC glioblastomas, 653999-131-R-J2-PDC, LG0703-F948-PDC, and 349418-098-R-PDC non-small cell lung carcinomas, 885512-296-R-J2-PDC, 171881-019-R-J1-PDC breast carcinomas and 186277-243-T-J2-PDC and 233499-124-R-J2-PDC colon carcinomas were obtained from the NCI Patient-Derived Models Repository (PDMR, https://pdmr.cancer.gov). The established cell lines NCI/ADR-RES (RRID:CVCL_14520 and OVCAR-5 (RRID:CVCL_1628) ovarian carcinomas, 786-O (RRID:CVCL_1051) and A498 (RRID:CVCL_A498) renal cell carcinoma, NCI-H211 (ATCC, cat. CRL-5824; RRID:CVCL_1529), NCI-H196 (ATCC, cat. CRL-5823, RRID:CVCL_1509), SW 1271 (ATCC, cat. CRL-2177, RRID:CVCL_1716) and NCI-H1876 (ATCC, cat. CRL-5902, RRID:CVCL_1503) small cell lung carcinomas, MDA-MB-231 (RRID:CVCL_0062) and MDA-MB-468 (RRID:CVCL_0419)breast carcinomas (10-12). Pooled donor human umbilical vein endothelial cells (HUVEC, Lonza, cat. CC-2519) and human mesenchymal stem cells (hMSC, Lonza, cat. PT-2501) were purchased from Lonza (Walkersville, MD).
Cell Culture. All cells were maintained in an incubator at 37 degrees C and 5% CO2 with 95% humidity. The PDC lines were cultured according to standard operating procedures established by the NCI PDMR (https://pdmr.cancer.gov). Briefly all PDCs were thawed and cultured in Matrigel-coated flasks prepared with a working solution of 1X Ham's F-12 nutrient mix, without supplementation (Invitrogen, Waltham, MA, cat. 11765054), 100 U/mL penicillin-streptomycin (Invitrogen, cat. 15140122), and 2.5% Matrigel (Corning Inc., Corning, NY, cat. 354248) for the first three passages. […]

[1] = second compound 0.1 µM, first compound 0.00949 µM
[2] = second compound 0.1 µM, first compound 0.03 µM
[3] = second compound 0.1 µM, first compound 0.0949 µM
[4] = second compound 0.1 µM, first compound 0.3 µM
[5] = second compound 0.1 µM, first compound 0.949 µM
[6] = second compound 0.1 µM, first compound 3 µM
[7] = second compound 0.316 µM, first compound 0.00949 µM
[8] = second compound 0.316 µM, first compound 0.03 µM
[9] = second compound 0.316 µM, first compound 0.0949 µM
[10] = second compound 0.316 µM, first compound 0.3 µM
[11] = second compound 0.316 µM, first compound 0.949 µM
[12] = second compound 0.316 µM, first compound 3 µM
[13] = second compound 1 µM, first compound 0.00949 µM
[14] = second compound 1 µM, first compound 0.03 µM
[15] = second compound 1 µM, first compound 0.0949 µM
[16] = second compound 1 µM, first compound 0.3 µM
[17] = second compound 1 µM, first compound 0.949 µM
[18] = second compound 1 µM, first compound 3 µM
[19] = second compound 3.16 µM, first compound 0.00949 µM
[20] = second compound 3.16 µM, first compound 0.03 µM
[21] = second compound 3.16 µM, first compound 0.0949 µM
[22] = second compound 3.16 µM, first compound 0.3 µM
[23] = second compound 3.16 µM, first compound 0.949 µM
[24] = second compound 3.16 µM, first compound 3 µM
[25] = second compound 10 µM, first compound 0.00949 µM
[26] = second compound 10 µM, first compound 0.03 µM
[27] = second compound 10 µM, first compound 0.0949 µM
[28] = second compound 10 µM, first compound 0.3 µM
[29] = second compound 10 µM, first compound 0.949 µM
[30] = second compound 10 µM, first compound 3 µM

Work on `COc1ccc([C@@H](O)c2cc(-c3ncnc4cc(N5CCOCC5)ccc34)c(F)cc2Cl)nn1` + NC1CC1c1ccc(-c2cccc(O)c2)cc1 yielded an IC50 (second compound 0.1 µM) of 361 nM, an IC50 (second compound 0.316 µM) of 173 nM and an IC50 (second compound 1 µM) of 82.5 nM. It also gave an IC50 (second compound 3.16 µM) of 164 nM, an IC50 (second compound 10 µM) of under 31.6 nM and a viability, T/C (second compound 0.1 µM, first compound 0.0316 µM) of 74.9%. For the same compound, the viability, T/C (second compound 0.1 µM, first compound 0.1 µM) was 65.6%, the viability, T/C (second compound 0.1 µM, first compound 0.316 µM) was 53% and the viability, T/C (second compound 0.1 µM, first compound 1 µM) was 33.1%. It also gave a viability, T/C (second compound 0.1 µM, first compound 3.16 µM) of 17.1%, a viability, T/C (second compound 0.1 µM, first compound 10 µM) of 12.8% and a viability, T/C (second compound 0.316 µM, first compound 0.0316 µM) of 57.1%. For the same compound, the viability, T/C (second compound 0.316 µM, first compound 0.1 µM) was 58.5%, the viability, T/C (second compound 0.316 µM, first compound 0.316 µM) was 42.3% and the viability, T/C (second compound 0.316 µM, first compound 1 µM) was 28.9%. For the same compound, the viability, T/C (second compound 0.316 µM, first compound 3.16 µM) was 18%, the viability, T/C (second compound 0.316 µM, first compound 10 µM) was 13.1% and the viability, T/C (second compound 1 µM, first compound 0.0316 µM) was 59.3%. The viability, T/C (second compound 1 µM, first compound 0.1 µM) was 48.3%, the viability, T/C (second compound 1 µM, first compound 0.316 µM) was 36% and the viability, T/C (second compound 1 µM, first compound 1 µM) was 27.4%. It also gave a viability, T/C (second compound 1 µM, first compound 3.16 µM) of 16.2%, a viability, T/C (second compound 1 µM, first compound 10 µM) of 11% and a viability, T/C (second compound 3.16 µM, first compound 0.0316 µM) of 58.5%. It also gave a viability, T/C (second compound 3.16 µM, first compound 0.1 µM) of 54.2%, a viability, T/C (second compound 3.16 µM, first compound 0.316 µM) of 43.7% and a viability, T/C (second compound 3.16 µM, first compound 1 µM) of 29.1%. For the same compound, the viability, T/C (second compound 3.16 µM, first compound 3.16 µM) was 14.8%, the viability, T/C (second compound 3.16 µM, first compound 10 µM) was 11.6% and the viability, T/C (second compound 10 µM, first compound 0.0316 µM) was 44.8%. The viability, T/C (second compound 10 µM, first compound 0.1 µM) was 43.7%, the viability, T/C (second compound 10 µM, first compound 0.316 µM) was 31.6% and the viability, T/C (second compound 10 µM, first compound 1 µM) was 20.2%. The viability, T/C (second compound 10 µM, first compound 3.16 µM) was 13.5% and the viability, T/C (second compound 10 µM, first compound 10 µM) was 10.2%.

`COc1cc(C2c3cc4c(cc3C(OC3OC5COC(C)OC5C(O)C3O)C3COC(=O)C23)OCO4)cc(OC)c1O` (stereo unspecified) + NC1CC1c1ccc(-c2cccc(O)c2)cc1 showed an IC50 (second compound 0.1 µM) of 22.6 nM, an IC50 (second compound 0.316 µM) of 13.4 nM and an IC50 (second compound 1 µM) of 15.4 nM. The IC50 (second compound 3.16 µM) was under 9.49 nM, the IC50 (second compound 10 µM) was under 9.49 nM and the viability, T/C [1] was 67.5%. The viability, T/C [2] was 43.7%, the viability, T/C [3] was 28.4% and the viability, T/C [4] was 25.9%. For the same compound, the viability, T/C [5] was 15.5%, the viability, T/C [6] was 12% and the viability, T/C [7] was 55%. The viability, T/C [8] was 38.7%, the viability, T/C [9] was 27.1% and the viability, T/C [10] was 20.5%. For the same compound, the viability, T/C [11] was 14.2%, the viability, T/C [12] was 11.3% and the viability, T/C [13] was 56.7%. It also gave a viability, T/C [14] of 41.7%, a viability, T/C [15] of 24.9% and a viability, T/C [16] of 23%. For the same compound, the viability, T/C [17] was 14%, the viability, T/C [18] was 11.9% and the viability, T/C [19] was 48.6%. It also gave a viability, T/C [20] of 32.3%, a viability, T/C [21] of 23.5% and a viability, T/C [22] of 20.3%. For the same compound, the viability, T/C [23] was 14.7%, the viability, T/C [24] was 11.7% and the viability, T/C [25] was 38.2%. For the same compound, the viability, T/C [26] was 25.5%, the viability, T/C [27] was 24.9% and the viability, T/C [28] was 20.1%. For the same compound, the viability, T/C [29] was 11.6% and the viability, T/C [30] was 10%.

`CCN(c1cc(-c2ccc(CN3CCOCC3)cc2)cc(C(=O)NCc2c(C)cc(C)[nH]c2=O)c1C)C1CCOCC1` + NC1CCC(NC2CC2c2ccccc2)CC1 showed an IC50 (second compound 0.1 µM) of over 3000 nM, an IC50 (second compound 0.316 µM) of over 3000 nM and an IC50 (second compound 1 µM) of over 3000 nM. The IC50 (second compound 3.16 µM) was over 3000 nM, the IC50 (second compound 10 µM) was 587 nM and the viability, T/C [1] was 104%. The viability, T/C [2] was 93.3%, the viability, T/C [3] was 80.4% and the viability, T/C [4] was 74.6%. The viability, T/C [5] was 70.1%, the viability, T/C [6] was 59.8% and the viability, T/C [7] was 98.4%. It also gave a viability, T/C [8] of 94%, a viability, T/C [9] of 81.1% and a viability, T/C [10] of 73.5%. The viability, T/C [11] was 68.4%, the viability, T/C [12] was 59.5% and the viability, T/C [13] was 95.2%. For the same compound, the viability, T/C [14] was 91.1%, the viability, T/C [15] was 75.1% and the viability, T/C [16] was 75.8%. For the same compound, the viability, T/C [17] was 64%, the viability, T/C [18] was 58.4% and the viability, T/C [19] was 78%. It also gave a viability, T/C [20] of 73.2%, a viability, T/C [21] of 65.4% and a viability, T/C [22] of 66%. For the same compound, the viability, T/C [23] was 60%, the viability, T/C [24] was 55.2% and the viability, T/C [25] was 55.9%. It also gave a viability, T/C [26] of 61.5%, a viability, T/C [27] of 54.8% and a viability, T/C [28] of 48.6%. The viability, T/C [29] was 50.5% and the viability, T/C [30] was 43.5%.

For `CC1COCCN1c1cc(-c2ccnn2C)c2ccnc(-c3ccn[nH]3)c2n1` (stereo unspecified), the viability, T/C (compound 0.00316 µM) was 92.8% and 41%, the viability, T/C (compound 0.01 µM) was 80.5% and 30.1% and the viability, T/C (compound 0.0316 µM) was 51.5% and 19.3%. For the same compound, the viability, T/C (compound 0.1 µM) was 35.9% and 18.3%, the viability, T/C (compound 0.316 µM) was 31.8% and 18.9% and the viability, T/C (compound 1 µM) was 28.6% and 22.4%.
